Test [1] deals with T1, B. subtilis pol IIIC (Bacillus subtilis, UniProt P13267).
T1 construct: made in house
Description: DNA polymerase assay, B. subtilis pol IIIC. Type of test: biochemical.

The subject of test [2] is Bacillus subtilis strain BD54. The experiment in a line: Inhibition of bacterial growth (MIC), Bs. Type of test: cell-based. The note with it: 16 to 18 hours, 37° C., read-out: Minimum Inhibitory Concentration for Bacterial Growth, Bs. The procedure, abridged:
(§1)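 Compounds are diluted two-fold in DMSO over 11 concentrations, commonly 80 down to 0.078 μg/mL, then combined with bacteria at 1×10^5 CFU/mL in LB or BHI (final DMSO 1%).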

Test [3] relates to Staphylococcus aureus strain IP 8. Description: Inhibition of bacterial growth (MIC), Sa. Type of test: cell-based. The following applies: IP8, 16 to 18 hours, 37° C., read-out: Minimum Inhibitory Concentration for Bacterial Growth, Sa. The procedure, abridged:
as §1

A further test concerns S. aureus Smith strain. Description: Inhibition of bacterial growth (MIC), Sm. Type of test: cell-based, Staphylococcus aureus. The note with it: Staphylococcus aureus, 16 to 18 hours, 37° C., read-out: Minimum Inhibitory Concentration for Bacterial Growth, Sm. Summed up: as §1
Test [4] has as its system methicillin-resistant S. aureus strain 1094. Description: Inhibition of bacterial growth (MIC), MRSA. Type of test: cell-based, Staphylococcus aureus. The following applies: Staphylococcus aureus, MRSA, 16 to 18 hours, 37° C., read-out: Minimum Inhibitory Concentration for Bacterial Growth, MRSA. The procedure, abridged:
as §1

Test [5] has as its system Enterococcus faecalis strain 29212. Description: Inhibition of bacterial growth (MIC), Efcl. Type of test: cell-based. The following applies: 16 to 18 hours, 37° C., read-out: Minimum Inhibitory Concentration for Bacterial Growth, Efcl. The procedure, abridged:
as §1

For test [6], the system named is E. faecium clinical isolate. The experiment in a line: Inhibition of bacterial growth (MIC), Efcm. Type of test: cell-based. The following applies: Enterococcus faecium, 16 to 18 hours, 37° C., read-out: Minimum Inhibitory Concentration for Bacterial Growth, Efcm. The procedure, abridged: as §1
Test [7] relates to vancomycin-resistant Enterococcus strain B42762. The experiment in a line: Inhibition of bacterial growth (MIC), VRE. Type of test: cell-based. The note with it: VRE, 16 to 18 hours, 37° C., read-out: Minimum Inhibitory Concentration for Bacterial Growth, VRE. The procedure, abridged: as §1
The test system of test [8] is Escherichia coli strain J53. The experiment in a line: Inhibition of bacterial growth (MIC), Ec. Type of test: cell-based. The note with it: 16 to 18 hours, 37° C., read-out: Minimum Inhibitory Concentration for Bacterial Growth, Ec. The procedure, abridged: as §1
Test [9] deals with T1, B. subtilis pol IIIC. The experiment in a line: Classical enzyme kinetic analyses (Lineweaver-Burk) with pol IIIC. Type of test: biochemical. The following applies: variable substrate dGTP; Compound 17 at 0, 20, 60 μM; HB-EMAU at 0, 1.6, 4.8 μM. The procedure:
The variable substrate in the experiments for FIGS. 1A and 1B was dGTP. See text for details.
Classical enzyme kinetic analyses were performed with Compound 17 and pol IIIC in which reaction velocity was measured as a function of each substrate (dGTP) concentration at several inhibitor concentrations (0, 20, and 60 μM). The results are graphed in a double reciprocal plot by the method of Lineweaver and Burk in FIG. 1A and show the effect of varying dGTP.
Compounds of the anilinouracil (AU) family, classical DNA polymerase inhibitors, inhibit pol IIIC strictly by “competitive” inhibition. An example is shown in the double reciprocal plot in FIG. 1B for the compound N3-hydroxybutyl 6-(3′-ethyl-4′-methylanilino) uracil (HB-EMAU), tested at 0, 1.6, and 4.8 μM. Such AU compounds compete with the dGTP substrate for binding to the enzyme (Clements et al., J. Biol. Chem. 250, 522-526 (1975)). “Noncompetive” inhibitors are exemplified by the class of HIV reverse transcriptase inhibitors, 4,5,6,7-tetrahydro-5-methylimidazo[4,5,1-jk][1,4]benzodiazepin-2(1H)-one (TIBO), i.e., TIBO compounds bind a site adjacent to the active site (Spence et al., Science 267, 988-993 (1995)). In contrast, the data in FIG. 1A clearly indicate that Compound 17, a pyrazole carboxylic acid hydrazide, inhibits pol IIIC by an “uncompetitive” mechanism.

For the next test, the system named is test strains of bacteria. The experiment in a line: Inhibition of bacterial growth, whole panel of test strains. Type of test: cell-based. The protocol:
Each compound was assayed against a panel of a strain of Bacillus subtilis, of strains of antibiotic-resistant and sensitive Enterococcus and Staphylococcus species, and of a strain of the Gram-negative bacterium Escherichia coli. Compounds were dissolved in DMSO at 100× the desired highest concentration and added to one well of a 96-well microassay plate. Two-fold serial drug dilutions were made across the plate in DMSO to yield 11 concentrations (usually 80-0.078 μg/mL) plus an untreated control. Drugs were then transferred to fresh plates using 1.5 μL per well. Log phase cultures were diluted to yield a concentration of 1×10^5 colony forming units/mL in either LB or BHI medium and transferred to the plates containing drug for a final volume of 150 μL. Each well, including the DMSO controls, contained a final concentration of 1% DMSO. Plates were incubated with shaking at 37° C. for 16 to 18 hours. Cell growth was determined by measuring optical density (570 nm, 1 cm path length) in a microplate reader. MIC (minimum inhibitory concentration) is equivalent to the lowest concentration at which growth is not observed. The bacterial strains and MIC determinations have been well characterized and are described elsewhere (Tarantino et al., Antimicrob. Agents Chemother., 43: 1982-1987 (1999); Daly et al., Antimicrob. Agents Chemother., 44: 2217-2221 (2000)).

Another test has as its target T2, B. subtilis pol IIIE (Bacillus subtilis, UniProt O34623).
T2 construct: made in house
Description: DNA polymerase assay, B. subtilis pol IIIE. Type of test: biochemical.

Values after ≈ are worked out from the molar mass of the structure shown.

As usually defined, the IC50 is the concentration that inhibits the measured activity by half.

T1 sequence (P13267 whole entry): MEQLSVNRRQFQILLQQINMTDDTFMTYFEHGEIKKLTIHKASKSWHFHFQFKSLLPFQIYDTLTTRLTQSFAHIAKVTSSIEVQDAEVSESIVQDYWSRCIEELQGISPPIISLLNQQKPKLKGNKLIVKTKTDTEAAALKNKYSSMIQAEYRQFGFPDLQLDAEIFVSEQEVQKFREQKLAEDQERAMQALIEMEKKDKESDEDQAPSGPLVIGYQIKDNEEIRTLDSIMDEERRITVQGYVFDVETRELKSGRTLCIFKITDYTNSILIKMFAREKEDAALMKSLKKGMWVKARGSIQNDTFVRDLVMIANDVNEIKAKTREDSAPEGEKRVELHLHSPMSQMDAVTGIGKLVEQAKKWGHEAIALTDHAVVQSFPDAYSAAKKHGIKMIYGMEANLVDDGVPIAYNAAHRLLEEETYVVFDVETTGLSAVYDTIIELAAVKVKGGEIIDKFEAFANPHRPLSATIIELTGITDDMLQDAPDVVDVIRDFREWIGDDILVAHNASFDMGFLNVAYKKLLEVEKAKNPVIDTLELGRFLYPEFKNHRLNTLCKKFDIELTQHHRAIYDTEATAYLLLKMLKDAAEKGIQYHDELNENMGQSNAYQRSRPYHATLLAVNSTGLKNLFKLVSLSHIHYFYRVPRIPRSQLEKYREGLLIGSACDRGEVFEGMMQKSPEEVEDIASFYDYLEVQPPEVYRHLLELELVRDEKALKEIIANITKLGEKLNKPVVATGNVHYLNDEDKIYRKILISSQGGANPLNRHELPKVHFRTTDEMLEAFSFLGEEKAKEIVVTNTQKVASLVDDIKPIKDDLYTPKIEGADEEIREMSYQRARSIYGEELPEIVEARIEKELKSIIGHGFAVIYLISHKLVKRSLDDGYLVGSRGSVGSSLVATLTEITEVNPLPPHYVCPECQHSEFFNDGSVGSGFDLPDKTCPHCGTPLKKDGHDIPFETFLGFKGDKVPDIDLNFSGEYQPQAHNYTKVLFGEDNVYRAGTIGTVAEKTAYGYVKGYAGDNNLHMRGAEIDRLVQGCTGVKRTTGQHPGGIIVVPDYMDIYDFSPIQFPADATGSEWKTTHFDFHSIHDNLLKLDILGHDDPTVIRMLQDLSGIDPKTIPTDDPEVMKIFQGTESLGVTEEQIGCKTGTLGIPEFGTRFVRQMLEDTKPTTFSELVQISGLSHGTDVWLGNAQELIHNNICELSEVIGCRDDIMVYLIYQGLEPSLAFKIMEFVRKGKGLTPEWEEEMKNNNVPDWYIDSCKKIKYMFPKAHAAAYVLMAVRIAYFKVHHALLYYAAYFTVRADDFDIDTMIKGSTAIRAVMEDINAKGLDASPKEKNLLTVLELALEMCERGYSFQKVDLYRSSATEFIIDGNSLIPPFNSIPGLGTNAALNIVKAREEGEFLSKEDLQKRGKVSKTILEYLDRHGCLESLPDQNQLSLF
T2 sequence (O34623 whole entry): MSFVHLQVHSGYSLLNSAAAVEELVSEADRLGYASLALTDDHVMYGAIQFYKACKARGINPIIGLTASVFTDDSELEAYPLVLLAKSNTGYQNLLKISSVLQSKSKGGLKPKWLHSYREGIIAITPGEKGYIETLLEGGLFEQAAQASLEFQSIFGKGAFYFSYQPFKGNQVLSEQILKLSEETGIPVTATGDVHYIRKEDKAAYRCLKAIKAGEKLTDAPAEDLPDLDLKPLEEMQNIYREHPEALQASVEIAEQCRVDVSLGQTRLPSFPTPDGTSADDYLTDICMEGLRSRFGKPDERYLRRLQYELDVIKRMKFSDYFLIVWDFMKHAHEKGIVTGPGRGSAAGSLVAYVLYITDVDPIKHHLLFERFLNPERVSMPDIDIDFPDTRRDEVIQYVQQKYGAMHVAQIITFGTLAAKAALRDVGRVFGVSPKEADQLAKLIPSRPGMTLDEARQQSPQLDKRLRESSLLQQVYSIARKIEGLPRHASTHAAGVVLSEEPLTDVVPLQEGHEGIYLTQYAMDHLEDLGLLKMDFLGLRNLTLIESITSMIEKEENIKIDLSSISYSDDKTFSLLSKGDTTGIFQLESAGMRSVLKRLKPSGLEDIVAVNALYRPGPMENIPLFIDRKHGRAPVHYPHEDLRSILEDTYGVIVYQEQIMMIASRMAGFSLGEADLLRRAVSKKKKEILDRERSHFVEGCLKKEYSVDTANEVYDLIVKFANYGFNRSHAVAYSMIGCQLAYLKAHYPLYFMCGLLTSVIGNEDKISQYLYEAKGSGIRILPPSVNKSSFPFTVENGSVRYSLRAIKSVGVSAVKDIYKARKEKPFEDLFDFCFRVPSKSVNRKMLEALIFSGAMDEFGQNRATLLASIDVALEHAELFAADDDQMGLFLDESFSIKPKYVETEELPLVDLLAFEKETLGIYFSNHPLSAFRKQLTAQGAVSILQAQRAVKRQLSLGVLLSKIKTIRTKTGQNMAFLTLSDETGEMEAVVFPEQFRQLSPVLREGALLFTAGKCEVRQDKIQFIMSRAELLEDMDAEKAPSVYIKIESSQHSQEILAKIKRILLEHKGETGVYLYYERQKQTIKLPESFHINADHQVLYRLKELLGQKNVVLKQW

In the case of `COc1ccc(-c2cc(C(=O)NN=Cc3cc(OC)c(OC)c(OC)c3)[nH]n2)cc1` [Compound 17], the IC50 at B. subtilis pol IIIC [1] (B. subtilis Pol IIIC IC50, 4 dNTPs, in the presence of all four dNTP substrates) was 36 µM; at B. subtilis pol IIIC [1] (B. subtilis Pol IIIC IC50, −dATP, in the absence of dATP), 3.1 µM; at B. subtilis pol IIIC [1] (B. subtilis Pol IIIC IC50, −dCTP, in the absence of dCTP), 2.6 µM; on B. subtilis pol IIIC [1] (B. subtilis Pol IIIC IC50, −dGTP, in the absence of dGTP), 1.8 µM; against B. subtilis pol IIIE (B. subtilis Pol IIIE IC50, −dATP, in the absence of dATP), over 780 µM; on B. subtilis pol IIIE (B. subtilis Pol IIIE IC50, −dCTP, in the absence of dCTP), over 780 µM. At B. subtilis pol IIIE (B. subtilis Pol IIIE IC50, −dGTP, in the absence of dGTP), this compound had a concentration for half-maximal inhibition (IC50) of over 780 µM. For the same compound, the MIC in test [2] is 0.625 µg/mL (≈ 1.52 µM); in test [3], 1.25 µg/mL (≈ 3.05 µM); in the test with S. aureus Smith strain, 2.5 µg/mL (≈ 6.09 µM); in [4] it was 2.5 µg/mL (≈ 6.09 µM); in test [5], 20 µg/mL (≈ 48.7 µM); in test [6], 5 µg/mL (≈ 12.2 µM). Moreover, the MIC in test [7] is 5 µg/mL (≈ 12.2 µM); in [8], over 80 µg/mL. Further, the “Mechanism of inhibition of pol IIIC (double reciprocal plot)” value at B. subtilis pol IIIC [9] is on record as “uncompetitive inhibition mechanism”. Also, in the test with test strains of bacteria, the “Inhibition of bacterial growth, result in words (rank of MIC values)” value is reported as “lowest MIC values”.
